The source of these data is a melting point compilation (Tetko et al.; mined from patent text by program, amines drawn as free bases though some values may be those of a salt).

By melting point is commonly meant the temperature, or range, at which the solid turns liquid.

`ClCc1cccc2c(-c3ccc(Br)cc3)nccc12`: the melting point lay in the range of 116 to 118 °C.
`COC(=O)c1n[nH]c2cc(C(F)(F)F)ccc12` had a melting point of 240 to 242 °C.
The molecule `CC[C@H](C)C(=O)c1ccc(-c2ccc(OC)cc2)cc1` displayed a melting point of 119 to 120 °C.
For `Cc1ccccc1OC(=O)N1CCCC1=O`, the melting point lay within 85 to 87 °C.
Take `CNc1cc(NS(=O)(=O)c2ccc(C(C)(C)C)cc2)nc(NC)n1`: the melting point lay within 316 to 318 °C.
For `CCCNC(=O)C(C)Cc1ccc2c(c1)c(Cc1ccc(C(=O)O)cc1OC)cn2C(C)C` (stereo unspecified) the value was 103 to 109 °C; for `FC(F)(F)c1ccc2sc(=Nc3ccccc3)sc2c1`, 122 to 123 °C; for `O=C(NC1CC1)c1cn2c(NCCCCCCNS(=O)(=O)c3ccccc3[N+](=O)[O-])nsc2n1`, 170 to 171 °C.
For `O=C(CN1CCC(CN2C(=O)c3ccccc3C2=O)CC1)c1ccc(F)cc1`, the melting point is 110 to 113 °C.
Then `O=[N+]([O-])c1ccc(NN=CCCc2ccc(F)cc2)cc1`, with 125 to 127 °C; and `O=c1[nH]cc(-c2cnccn2)cc1Br`, with > 250 °C; and `Cc1oc(-c2ccc3ccccc3c2)nc1COc1ccc(CO)cc1`, with 181 to 182 °C.
Then `O=c1[nH]c2cc([N+](=O)[O-])cnc2n1-c1ccccc1F`, with 234 to 236 °C; and `O=C(NCCOc1ccc(CC(Oc2ccccc2)C(=O)O)cc1Cl)c1ccc(-c2ccccn2)cc1` (stereo unspecified), with 59 to 61 °C.
`COc1ccccc1N1CCC(CNCC2COc3cccc(O)c3O2)CC1` (stereo unspecified) displayed a melting point of 116 to 119 °C.
Then `CCOC(=O)C1=C(C)NC(c2cnc(NC(C)=O)s2)=NC1c1ccc(F)cc1Cl` (stereo unspecified), with > 250 °C; and `CC(Cc1cccc([N+](=O)[O-])c1)NC=O` (stereo unspecified), with 99 to 100 °C.
For `COc1ccc(NC2=NN(c3cccnc3)CC2)cc1`, the melting point was in the range of 116 to 119 °C.
Turning to `CCCS(=O)(=O)NC(=N[N+](=O)[O-])NCc1cnc(Cl)s1`, the melting point lay in the range of 105 to 107 °C.
For `c1ccc(-c2ncc(-c3csc(-c4ccccc4)n3)cn2)cc1` the value was 214 to 216 °C; for `CCS(=O)(=O)c1cnc2c(c1)nc(CC(C)(C)C)n2CC1CCOCC1`, 191 °C.
For `Cc1nc(-n2ccc(N3CCNC3=O)cc2=O)sc1C(=O)NCc1ccccc1`, the melting point was > 300 °C.
In turn, `O=C(Nc1ccc(C(=O)O)c(O)c1)c1ccc(-c2ccccc2)cc1` had a melting point of 266 °C.
With `CCCc1nc2c(N)nc3cc(OCCNS(C)(=O)=O)ccc3c2s1`, the melting point lay within 148 to 151 °C.
As to `COC(=O)Cc1ccc(NC(=O)Nc2ccccc2C)c(OC)c1`, the melting point lay in the range of 167 to 168 °C.
Molecule `CCOC(=O)c1cc2c(OCC(O)CNC(C)(C)C)cc(C)cc2[nH]1` (stereo unspecified) showed a melting point of 181 to 183 °C.
As to `C=Cc1cnc(C)c(OC(C)=O)c1CSC(C)=O`, the melting point lay in the range of 72 to 73 °C.
As for `OC1CSC(Oc2ccc(-c3ccc(N4CCCCC4)cc3)nc2)C(O)C1O` (stereo unspecified), the melting point came to 221 °C.
Then `COc1ccc(S(=O)(=O)C2=C(C(=O)NO)CCC2=CCCc2ccccc2)cc1OC`, with 70 to 73 °C.
Then `Cc1ccc(-n2nc(C(C)(C)C)cc2NC(=O)Nc2ccc(OCCc3ccncc3)c3ccccc23)cn1`, with 189 to 190 °C; and `CCCCc1nc2c(N)nc3ccccc3c2n1CCCC(=NO)c1ccccc1`, with 242 to 244 °C; and `Cc1cc(Nc2ccnc(Nc3ccc(S(=O)(=O)N(C)C4CCN(Cc5cncs5)CC4)cc3)n2)ccc1F`, with 196 to 197 °C.
For `CC(C)NCC(O)c1ccc(OCc2ccccc2)c(C(N)=O)c1` (stereo unspecified) the value was 135 to 138 °C.
For the molecule `Cn1nc(Nc2cc(-c3ccc4c(c3)NC(=O)C4)cn3ccnc23)cc1C(C)(C)O`, the melting point fell in the range of 180 to 182 °C.
Then `CCOC(=O)C=C(C)c1ccc(C=CC=C(C)CCC=C(C)C)cc1`, with 32 to 32.5 °C; and `COc1ccc(S(=O)(=O)N(Cc2ccccc2)C2(C(=O)NO)CCN(Cc3ccccc3)CC2)cc1`, with 136 to 142 °C.
On to `CN(C(=O)c1ccccc1NC(=O)CN1C(=O)c2ccccc2C1=O)c1ccccc1`, for which the melting point stood at 138 °C.
Then `CCOCc1nc(C(C)(C)O)c(C(=O)O)n1Cc1ccc(-c2ccccc2-c2nnn[nH]2)cc1`, with 150 °C.
For `OC1CN2[C@H]3CC[C@@H]2[C@@H]1[C@@H](c1ccc(Cl)c(Cl)c1)C3` (stereo partly specified) the value was 156 to 158 °C; for `COc1ccc(NC(C)c2ccccc2)cc1` (stereo unspecified), 64 °C.
`NC(=O)NC[C@@H]1CCCc2cc(S(=O)(=O)c3cccc(F)c3)ccc21` came in with a melting point of 155 to 156 °C.
For `Cc1c(CBr)oc2ccc(Cl)cc12` the value was 81 to 82 °C.
As to `O=C(O)CCn1[nH]c(=O)c2ccccc2c1=O`, the melting point is 201 to 203 °C.
Then `CCOc1cc(C(CS(C)(=O)=O)N2C(=O)c3cccc(N(S(C)(=O)=O)S(C)(=O)=O)c3C2=O)ccc1OC` (stereo unspecified), with 277 to 279 °C.
`Cn1nnc2cccc(C(O)c3cccc(F)c3)c21` (stereo unspecified): the melting point came to 152 °C.
`CCOC(=O)C1=NOC(c2ccccc2)(c2ccccc2)C1` registered a melting point of 78 to 81 °C.
Consider `CC(C)CC(NC(=O)Cc1ccc(NC(=O)Nc2c(Cl)cccc2Cl)cc1)c1ncc(CCC(=O)O)s1` (stereo unspecified), for which the melting point was 148 to 150 °C.
Then `Cc1cc(N(C)C)nc(N)n1`, with 172 to 174 °C.
The molecule `CN(CC(=O)C(CCCCN)NC(=O)c1ccccc1)C(=O)N1CCCC1C(=O)O` (stereo unspecified) yielded a melting point of 130 to 133 °C.
`CC(=O)c1ccc2ccc3ccccc3c2n1` returned a melting point of 113 to 115 °C.
Molecule `O=c1cc(CCl)nc2ccn(-c3ccccc3)n12` came in with a melting point of 194 to 196 °C.
The molecule `COC(=O)c1cccc(Cn2ccn(C3CCc4ccccc4C3)c2=S)c1` (stereo unspecified) yielded a melting point of 130 to 132 °C.
`Cc1ccc(S(=O)(=O)N2CCC(CC(C#N)(c3ccccc3)c3ccccc3)CC2)cc1` returned a melting point of 130 °C.
Consider `CCCOc1ccccc1-c1ccc([N+](=O)[O-])c(=O)[nH]1`, for which the melting point fell in the range of 198 to 200 °C.
The molecule `CS(=O)(=O)c1ccc(-n2cc(-c3ccc4ccccc4c3)nc2-c2ccc(Cl)cc2)cc1` registered a melting point of 204 to 206 °C.
Molecule `Cc1noc(=O)c2ccc(NC(=O)C(=O)CC3(c4cccc(C(F)(F)F)c4)CC3)cc12` showed a melting point of 136 to 139 °C.
`Cc1oc(-c2ccccc2)nc1COc1cccc(COc2cncc(CO)c2)c1`: the melting point was in the range of 145 to 146 °C.
Then `CCSc1cc(C(C)C)ccc1N(CC)c1nc(C)cc(C)n1`, with 128 to 130 °C; and `CCC(=O)N1N=C(c2ccc([N+](=O)[O-])cc2)c2cc(Br)ccc2CC1C` (stereo unspecified), with 178 to 180 °C.
Molecule `CCOC(=O)N(C)NC1=Nc2sc(CC)cc2C(c2ccccc2Cl)=NC1` showed a melting point of 172 to 174 °C.
`Nc1ccc(CN2C(=O)[C@H]3CCC[C@H]3N(C(=O)CN3C(=O)c4ccccc4C3=O)c3ccccc32)cc1` (relative stereo): the melting point lay in the range of 286 to 289 °C.
For `CCCCCCCOc1ccc(CCC(CO)(CCC)NC(=O)c2cc([N+](=O)[O-])cc([N+](=O)[O-])c2)cc1` (single isomer, unassigned; (-)) the value was 115 to 116 °C; for `CC(=O)N[C@H]1CC[C@H](CCN2CCC(c3ccc(F)c4occc34)CC2)CC1`, 204 °C; for `Cc1ccc(NC(=O)CN2C(=O)C3(COc4cc5c(cc43)CCO5)c3ccccc32)c(C)c1` (stereo unspecified), 277 to 279 °C.
For `CCOC(=O)c1ncn2c1Cn1ccnc1-c1sccc1-2` the value was 203 to 204 °C; for `CCCn1c(=O)c2nc(CC(C)c3ccccc3)[nH]c2n(CCC)c1=O` (stereo unspecified), 136 to 137 °C; for `CC(=O)N1c2ccccc2-c2c([N+](=O)[O-])cnn2C1C` (stereo unspecified), 149 to 150 °C.
For `COC(=O)[C@H]1CN(C(=O)OC(C)(C)C)C[C@H]1c1ccc(OC)c(OC2CCCC2)c1` (relative stereo) the value was 85 to 87 °C.
For `CCOC(=O)c1cc2c(Cl)c(OC)c(OC)cc2s1`, the melting point lay in the range of 124 to 126 °C.
`CC(=O)N1CCC(C2=C(C#N)C(c3cccc4nonc34)c3c[nH]nc3N2)CC1` (stereo unspecified) yielded a melting point of 248 °C.
Consider `O=C(O)c1cn(C2CCCCC2)c2c(F)c(F)c(F)cc2c1=O`, for which the melting point lay in the range of 261 to 264 °C.
Then `Cc1ccnc(C(=O)c2[nH]c3ccc(Cl)cc3c2CC(=O)NCCN)c1`, with 166 °C; and `Cc1cc(Cl)cc(C(=O)Nc2cccc(Cl)c2)n1`, with 174 °C.
Then `O=C(O)[C@@H](CC(=O)N1CCOCC1)NS(=O)(=O)c1ccc(Oc2ccccc2)cc1`, with 147 to 149 °C; and `COC(=O)C(C)c1ccc2cc(OC(=O)CO)ccc2c1` (stereo unspecified), with 49.5 to 52 °C.
Then `O=C(O)CCc1cc2cc(Cl)ccc2n1S(=O)(=O)c1cccc2cccnc12`, with 215 to 222 °C.
The molecule `O=S(=O)(c1ccccc1)c1ccc(Oc2ccc(Cl)c(Cl)c2)cc1` displayed a melting point of 145 to 146 °C.
For the molecule `CCC(C)(C)c1ccc(Oc2ccncc2NC(=O)c2ccccc2)c(C(C)(C)CC)c1`, the melting point came to 253 °C.
The molecule `CN1CCc2ccn(S(=O)(=O)c3ccccc3)c2C(c2ccccc2)C1` (stereo unspecified) displayed a melting point of 115 to 116 °C.
Then `c1ccc(Cn2c(N3CCCCC3)nc3ccccc32)cc1`, with 84 to 87 °C; and `O=C1CC(c2c(-c3ccc[nH]3)[nH]c3ccc(Cl)cc23)C(=O)N1` (stereo unspecified), with 138 to 144 °C.
As to `CC(=O)NC1(c2ccc(C(C)Cl)cc2)CC1` (stereo unspecified), the melting point was 104 to 107 °C.
`N#Cc1ccc(C(=O)Cl)c(CCl)c1` came in with a melting point of 44 to 44.5 °C.
`CC(=C1SC(=O)NC1=O)c1ccc(OCCOc2c(-c3ccc(F)cc3)n(C)c3cc(F)ccc3c2=O)cc1` displayed a melting point of 276 to 278 °C.
Then `Cc1nc2c(s1)-c1nc(NCc3ccccc3)ncc1CC2`, with 152 to 154 °C; and `CCOC(=O)c1cn(-c2ccc(OC)cc2F)c2cc(F)c(F)cc2c1=O`, with 170 to 171 °C.
